PMC10785772 (Science translational medicine, 2023)
Converted amounts (≈) assume the structure as drawn. Like-named read-outs stand apart in the source and are kept apart here.

Tested on: E. coli strain NDM-1 (ATCC:BAA-2471)
Assay: MIC against multidrug-resistant sepsis-model strain
Assay type: cell-based

MIC (Escherichia coli, BAA2471) | Compound | MIC
 | colistin | 2.5 µg/mL
> 32 µg/mL | O=C(O)c1cn(C2CC2)c2cc(N3CCNCC3)c(F)cc2c1=O [ciprofloxacin] | 
32 µg/mL (≈ 107 µM) | C[C@@H](O)[C@H]1C(=O)N2C(C(=O)O)=C(SCCN=CN)C[C@H]12 [imipenem] | 
